Molecules are shown by their SMILES.

The subject of data set [1] is Vero cells. Kind of data set: Toxicity for Vero cells, Trypan Blue exclusion. In kind it is cell-based, green monkey. The conditions noted are these: 10 µM, 48h. On the procedure:
Finally both the compounds OxoPA and Br-OxoPA were tested at a concentration of 10 µM for toxicity of Vero cells for 48h. Both compounds are not toxic as evaluated by Trypan Blue exclusion (not shown).

The test system of data set [2] is T.cruzi CL Brener (clone F11-F5). Kind of data set: Vero cell infection by trypomastigotes in the presence of inhibitor (17h), Giemsa scoring. On the set-up: key: EI = % infected cells × mean parasites per infected cell. It counts as cell-based. The note with it: Table 5.
Data set [3] shares this test system. The experiment in a line: Intracellular parasite fate: inhibitor added after 17h infection, 48h, Giemsa scoring. It counts as cell-based. The conditions noted are these: 48h after infection; for Mean number of parasites/ cell: 3,9 at 0; for % Infected cells: 39,3 at 0; for Number of parasites/100 cells: 153,15 at 0. Here is the method:
Vero cells (from green monkey kidney) were seeded at a density of 15x10^6 cells per 25cm^2 culture flasks or at 5 x10^4 cells/well into LabTek slides. The cultures were maintained in RPMI 1640 medium supplemented with 5% fetal bovine serum and kept at 37°C in an atmosphere of 5% CO2. Cell culture-derived trypomastigotes from T.cruzi CL Brener (clone F11-F5) were isolated from the supernatant of Vero cells, which had been previously infected with bloodstream trypomastigotes. Vero cell cultures were infected for 17h at 37°C with cultured trypomastigotes at a 10:1 parasite/cell ratio in the presence or in the absence of increasing doses of freshly made dilutions (3-30 µM) of (E)-4-oxopent-2-enoic acid (OxoPA) and its derivative (E)-5-bromo-4-oxopent-2-enoic acid (Br-OxoPA), previously dissolved in dimethyl sulfoxide (DMSO). For comparison, cultures were seeded with or without 10-1000 µM specific proline racemase inhibitor pyrrole-2-carboxylic acid (PYC) also diluted in DMSO. To verify if proline racemase inhibitors could also exert an effect on the parasite intracellular cycle after 17 hours of parasite-host cell interaction, all the wells were then rinsed three times to eliminate all extracellular parasites and new medium was added to the cultures that were incubated for up to 48 hours with fresh dilutions of the inhibitor compounds. After the different treatments, cultures were washed with PBS, fixed and stained with Giemsa. The numbers of infected host cells and of parasites per infected cell were then scored in at least 400 host cells in independent experiments, run in duplicate. Results are expressed as the percentage of infected cells, the mean number of parasites per infected cell or by the endocytic index (EI) which represents the percentage of infected cells multiplied by the mean number of parasites per infected cell.
Additional studies were performed to verify whether TcPRAC inhibition by the new compounds would influence the intracellular fate of the parasite. For this purpose, after infection for 17 hours, the host cells were washed and different ligand concentrations (3µM, 10 µM, 30 µM) were added to the medium and the infection was followed for up to 48 hours. As can be observed in Tables 4A, B and C, after 48 hours of culture treatments, there was a dose-dependent decrease in the number of parasites/ 100 cells, as well as in the percentage of infected cells or yet in the mean number of parasites/cell. […] Table 4A : Number of parasites/100 cells
Vero cells (from green monkey kidney) were seeded at a density of 15x10^6 cells per 25cm2 culture flasks or at 5x10^4 cells/well into LabTek slides. The cultures were maintained in RPMI 1640 medium supplemented with 5% fetal bovine serum and kept at 37°C in an atmosphere of 5% CO2. Cell culture-derived trypomastigotes from T.cruzi CL Brener (clone F11-F5) were isolated from the supernatant of Vero cells, which had been previously infected with bloodstream trypomastigotes. LabTek wells were infected for 17h at 37°C with cultured trypomastigotes at a 10:1 parasite/cell ratio. All the wells were then washed to eliminate all extracellular parasites and new medium was added to the cultures containing or not increasing concentrations of freshly made dilutions of 3-30 µM of OxoPA or Br-OxoPA molecules. Cultures were washed after 48h, fixed and stained with Giemsa.

Regarding `O=C(O)/C=C/C(=O)CBr` [Br-OxoPA, (E)-5-bromo-4-oxopent-2-enoic acid], the “toxicity of Vero cells” value in data set [1] is “not toxic”. Further, the “Endocytic index (EI)” value in data set [2] (Inhibitor concentration (µM) 3) was determined as 78. Besides, the “Mean number of parasites/ cell” value is 3,2 in data set [3] (3 µM), 3,1 in data set [3] (10 µM) and 2,3 in data set [3] (30 µM). For the same compound, the entries for the “% Infected cells” value in data set [3] (3 µM), in data set [3] (10 µM) and in data set [3] (30 µM) were 55,3%, 49,8% and 31,0%, respectively. The “Number of parasites/100 cells” value in data set [3] (3 µM) is 176,5; in data set [3] (10 µM) it was 155,8; in data set [3] (30 µM), 69,4.

Turning to `CC(=O)/C=C/C(=O)O` [OxoPA, (E)-4-oxopent-2-enoic acid], in data set [1], the “toxicity of Vero cells” value is “not toxic”. Moreover, the “Endocytic index (EI)” value in data set [2] (Inhibitor concentration (µM) 3) was determined as 42; in data set [2] (Inhibitor concentration (µM) 10) it was 23. For the same compound, the “Mean number of parasites/ cell” value was 2,9 in data set [3] (3 µM), 3,0 in data set [3] (10 µM) and 2,8 in data set [3] (30 µM). Further, the results for the “% Infected cells” value in data set [3] (3 µM), in data set [3] (10 µM) and in data set [3] (30 µM) were 41,3%, 41,3% and 20,0%, respectively. In addition, the “Number of parasites/100 cells” value is recorded as 121,3 in data set [3] (3 µM), 129,4 in data set [3] (10 µM) and 56,1 in data set [3] (30 µM).

The record behind these values is patent EP2451450B1, “Inhibitors of proline racemase enzymes for the treatment of Trypanosoma spp infections” (Institut Pasteur, priority 2009, dated 2011).
